In patent US12696901B2, “Pesticidally active heterocyclic derivatives with sulfur containing substituents” (SYNGENTA CROP PROTECTION AG, priority 2020, dated 2026):

How the values were obtained:
Type in all cases: in vivo
[1] = tested on: Bemisia tabaci (Cotton White Fly); experiment: Activity against Bemisia tabaci (cotton white fly), sprayed cotton leaf discs; details: foliar, 144 h, application rate 200 ppm, adult white flies, 6 days after incubation
Description: Example B1: Activity Against Bemisia tabaci (Cotton White Fly)
Cotton leaf discs were placed on agar in 24-well microtiter plates and sprayed with aqueous test solutions prepared from 10,000 ppm DMSO stock solutions. After drying the leaf discs were infested with adult white flies. The samples were checked for mortality 6 days after incubation.

[2] = tested on: Diabrotica balteata (Corn Root Worm); experiment: Activity against Diabrotica balteata (corn root worm), sprayed maize sprouts on agar; details: 96 h, application rate 200 ppm, L2 larvae, 4 days after infestation, read-out: effect in at least one of the two categories (mortality or growth inhibition)
Description: Example B2: Activity Against Diabrotica balteata (Corn Root Worm)
Maize sprouts placed onto an agar layer in 24-well microtiter plates were treated with aqueous test solutions prepared from 10,000 ppm DMSO stock solutions by spraying. After drying, the plates were infested with L2 larvae (6 to 10 per well). The samples were assessed for mortality and growth inhibition in comparison to untreated samples 4 days after infestation.

[3] = tested on: Myzus persicae (Green Peach Aphid); experiment: Activity against Myzus persicae (green peach aphid), feeding/contact activity; details: 144 h, application rate 200 ppm, mixed ages, 6 days after infestation
Description: Example B6: Activity Against Myzus persicae (Green Peach Aphid) Feeding/Contact Activity
Sunflower leaf discs were placed onto agar in a 24-well microtiter plate and sprayed with aqueous test solutions prepared from 10,000 ppm DMSO stock solutions. After drying, the leaf discs were infested with an aphid population of mixed ages. The samples were assessed for mortality 6 days after infestation.

[4] = tested on: Plutella xylostella (Diamond Back Moth); experiment: Activity against Plutella xylostella (diamond back moth), treated artificial diet; details: 192 h, application rate 200 ppm, eggs, 8 days after infestation, read-out: effect in at least one of the two categories (mortality or growth inhibition)
Description: Example B5: Activity Against Plutella xylostella (Diamond Back Moth)
24-well microtiter plates with artificial diet were treated with aqueous test solutions prepared from 10,000 ppm DMSO stock solutions by pipetting. After drying, Plutella eggs were pipetted through a plastic stencil onto a gel blotting paper and the plate was closed with it. The samples were assessed for mortality and growth inhibition in comparison to untreated samples 8 days after infestation.

[5] = tested on: Diabrotica balteata (Corn Root Worm); experiment: Activity against Diabrotica balteata (corn root worm), corn seedlings on filter paper in cups; details: 120 h, application rate 3 ppm, L2 larva, 5 days after treatment, read-out: effect in at least one of the two categories (mortality or growth inhibition)
Description: Example B12: Activity Against Diabrotica Balteata (Corn Root Worm)
Three corn seedlings were placed on wetted filter paper in plastic cups, and 3 ml of diluted test solutions were pipetted onto them. The cups were infested with 10 L2 larva and checked for mortality and growth regulation 5 days after treatment.

[6] = tested on: Spodoptera littoralis (Egyptian Cotton Leaf Worm); experiment: Activity against Spodoptera littoralis (Egyptian cotton leaf worm), sprayed cotton leaf discs; details: foliar, 72 h, application rate 200 ppm, L1 larvae, 3 days after infestation
Description: Example B7: Activity Against Spodoptera littoralis (Egyptian Cotton Leaf Worm)
Cotton leaf discs were placed onto agar in 24-well microtiter plates and sprayed with aqueous test solutions prepared from 10,000 ppm DMSO stock solutions. After drying the leaf discs were infested with five L1 larvae. The samples were assessed for mortality, anti-feeding effect, and growth inhibition in comparison to untreated samples 3 days after infestation. Control of Spodoptera littoralis by a test sample is given when at least one of the categories mortality, anti-feedant effect, and growth inhibition is higher than the untreated sample.

[7] = tested on: Carpocapsa (Cydia) Pomonella (Codling Moth); experiment: Activity against Carpocapsa (Cydia) pomonella (codling moth), sprayed diet cubes; details: 336 h, application rate 12.5 ppm, L1 larvae, 14 days after infestation, read-out: effect in at least one of the two categories (mortality or growth inhibition)
Description: Example B11: Activity Against Carpocapsa (Cydia) Pomonella (Codling Moth)
Diet cubes coated with paraffin were sprayed with diluted test solutions in an application chamber. After drying off the treated cubes (10 replicates) were infested with 1 L1 larvae. Samples were incubated at 26-27° C. and checked 14 days after infestation for mortality and growth inhibition. The following compounds gave an effect of at least 80% in at least one of the two categories (mortality or growth inhibition) at an application rate of 12.5 ppm: P1, P2, P3, P4, P5, P6, P10, P11, P12, P14, P15, P16, P17, P19, P20, P21, P22, P24, P27, P29, P30, P33, P34, P35.

[8] = tested on: Euschistus heros (Neotropical Brown Stink Bug); experiment: Activity against Euschistus heros (neotropical brown stink bug), sprayed soybean leaves; details: 120 h, application rate 200 ppm, N2 nymphs, 5 days after infestation, read-out: effect in at least one of the two categories (mortality or growth inhibition)
Description: Example B3: Activity Against Euschistus heros (Neotropical Brown Stink Bug)
Soybean leaves on agar in 24-well microtiter plates were sprayed with aqueous test solutions prepared from 10,000 ppm DMSO stock solutions. After drying the leaves were infested with N2 nymphs. The samples were assessed for mortality and growth inhibition in comparison to untreated samples 5 days after infestation.

[9] = tested on: Chilo suppressalis (Striped Rice Stemborer); experiment: Activity against Chilo suppressalis (striped rice stemborer), treated artificial diet; details: 144 h, application rate 200 ppm, L2 larvae, 6 days after infestation
Description: Example B10: Activity Against Chilo suppressalis (Striped Rice Stemborer)
24-well microtiter plates with artificial diet were treated with aqueous test solutions prepared from 10,000 ppm DMSO stock solutions by pipetting. After drying, the plates were infested with L2 larvae (6-8 per well). The samples were assessed for mortality, anti-feeding effect, and growth inhibition in comparison to untreated samples 6 days after infestation. Control of Chilo suppressalis by a test sample is given when at least one of the categories mortality, anti-feedant effect, and growth inhibition is higher than the untreated sample.

CCS(=O)(=O)c1c(N2Cc3cnc(C(F)(F)F)cc3C2=O)sc2cc(C(F)(F)F)ccc12 [Compound P1, 2-[3-ethylsulfonyl-6-(trifluoromethyl)benzothiophen-2-yl]-6-(trifluoromethyl)-3H-pyrrolo[3,4-c]pyridin-1-one]
≥ 80%: mortality at 200 ppm [1] | percent effect (mortality or growth inhibition) at 200 ppm [2] | mortality at 200 ppm [3] | percent effect (mortality or growth inhibition) at 200 ppm [4] | percent effect (mortality or growth inhibition) at 3 ppm [5] | percent control (mortality, anti-feedant effect or growth inhibition) at 200 ppm [6] | percent effect (mortality or growth inhibition) at 12.5 ppm [7] | percent effect (mortality or growth inhibition) at 200 ppm [8]

CCS(=O)(=O)c1c(N2Cc3ncc(C(F)(F)F)cc3C2=O)nc2ccc(C(F)(F)F)cn12 [Compound P4, 6-[3-ethylsulfonyl-6-(trifluoromethyl)imidazo[1,2-a]pyridin-2-yl]-3-(trifluoromethyl)-7H-pyrrolo[3,4-b] pyridin-5-one]
≥ 80%: mortality at 200 ppm [1] | percent effect (mortality or growth inhibition) at 200 ppm [2] | mortality at 200 ppm [3] | percent effect (mortality or growth inhibition) at 200 ppm [4] | percent effect (mortality or growth inhibition) at 3 ppm [5] | percent control (mortality, anti-feedant effect or growth inhibition) at 200 ppm [6] | percent effect (mortality or growth inhibition) at 12.5 ppm [7] | percent effect (mortality or growth inhibition) at 200 ppm [8]

CCS(=O)(=O)c1c(N2Cc3ccc(OC(F)(F)F)cc3C2=O)nc2ccc(C(F)(F)F)cn12 [Compound P6, 2-[3-ethylsulfonyl-6-(trifluoromethyl)imidazo[1,2-a]pyridin-2-yl]-6-(trifluoromethoxy) isoindolin-1-one]
≥ 80%: mortality at 200 ppm [1] | percent effect (mortality or growth inhibition) at 200 ppm [2] | mortality at 200 ppm [3] | percent effect (mortality or growth inhibition) at 200 ppm [4] | percent effect (mortality or growth inhibition) at 3 ppm [5] | percent control (mortality, anti-feedant effect or growth inhibition) at 200 ppm [6] | percent effect (mortality or growth inhibition) at 12.5 ppm [7] | percent effect (mortality or growth inhibition) at 200 ppm [8]

CCS(=O)(=O)c1c(N2Cc3ccc(OC(F)(F)F)cc3C2=O)nc2cc(C(F)(F)F)ccn12 [Compound P7, 2-[3-ethylsulfonyl-7-(trifluoromethyl)imidazo[1,2-a]pyridin-2-yl]-6-(trifluoromethoxy) isoindolin-1-one]
≥ 80%: mortality at 200 ppm [1] | percent effect (mortality or growth inhibition) at 200 ppm [2] | mortality at 200 ppm [3] | percent effect (mortality or growth inhibition) at 200 ppm [4] | percent effect (mortality or growth inhibition) at 3 ppm [5] | percent control (mortality, anti-feedant effect or growth inhibition) at 200 ppm [6]

CCS(=O)(=O)c1c(N2Cc3ncc(C(F)(F)F)cc3C2=O)nc2ccc(OCC(F)F)cn12 [Compound P19, 6-[6-(2,2-difluoroethoxy)-3-ethylsulfonyl-imidazo[1,2-a]pyridin-2-yl]-3-(trifluoromethyl)-7H-pyrrolo[3,4-b]pyridin-5-one]
≥ 80%: percent effect (mortality or growth inhibition) at 200 ppm [2] | mortality at 200 ppm [3] | percent effect (mortality or growth inhibition) at 200 ppm [4] | percent control (mortality, anti-feedant effect or growth inhibition) at 200 ppm [9] | percent effect (mortality or growth inhibition) at 3 ppm [5] | percent control (mortality, anti-feedant effect or growth inhibition) at 200 ppm [6] | percent effect (mortality or growth inhibition) at 12.5 ppm [7] | percent effect (mortality or growth inhibition) at 200 ppm [8]

CCS(=O)(=O)c1c(N2Cc3ncc(C(F)(F)F)cc3C2=O)nc2ccc(OC(C)(C)C#N)cn12 [Compound P20, 2-[3-ethylsulfonyl-2-[5-oxo-3-(trifluoromethyl)-7H-pyrrolo[3,4-b]pyridin-6-yl]imidazo [1,2-a]pyridin-6-yl] oxy-2-methyl-propanenitrile]
≥ 80%: mortality at 200 ppm [1] | percent effect (mortality or growth inhibition) at 200 ppm [2] | mortality at 200 ppm [3] | percent effect (mortality or growth inhibition) at 200 ppm [4] | percent control (mortality, anti-feedant effect or growth inhibition) at 200 ppm [9] | percent effect (mortality or growth inhibition) at 3 ppm [5] | percent control (mortality, anti-feedant effect or growth inhibition) at 200 ppm [6] | percent effect (mortality or growth inhibition) at 12.5 ppm [7]

CCS(=O)(=O)c1c(N2Cc3ncc(C(F)(F)F)cc3C2=O)nc2ccc(Br)cn12 [Compound P21, 6-(6-bromo-3-ethylsulfonyl-imidazo[1,2-a]pyridin-2-yl)-3-(trifluoromethyl)-7H-pyrrolo[3,4-b]pyridin-5-one]
≥ 80%: percent effect (mortality or growth inhibition) at 200 ppm [2] | mortality at 200 ppm [3] | percent effect (mortality or growth inhibition) at 200 ppm [4] | percent control (mortality, anti-feedant effect or growth inhibition) at 200 ppm [9] | percent effect (mortality or growth inhibition) at 3 ppm [5] | percent control (mortality, anti-feedant effect or growth inhibition) at 200 ppm [6] | percent effect (mortality or growth inhibition) at 12.5 ppm [7] | percent effect (mortality or growth inhibition) at 200 ppm [8]

CCS(=O)(=O)c1c(N2Cc3ncc(C(F)(F)F)cc3C2=O)nc2cc(C3CC3)ccn12 [Compound P24, 6-(7-cyclopropyl-3-ethylsulfonyl-imidazo[1,2-a]pyridin-2-yl)-3-(trifluoromethyl)-7H-pyrrolo[3,4-b]pyridin-5-one]
≥ 80%: percent effect (mortality or growth inhibition) at 200 ppm [2] | mortality at 200 ppm [3] | percent effect (mortality or growth inhibition) at 200 ppm [4] | percent control (mortality, anti-feedant effect or growth inhibition) at 200 ppm [9] | percent effect (mortality or growth inhibition) at 3 ppm [5] | percent control (mortality, anti-feedant effect or growth inhibition) at 200 ppm [6] | percent effect (mortality or growth inhibition) at 12.5 ppm [7] | percent effect (mortality or growth inhibition) at 200 ppm [8]

CCS(=O)(=O)c1c(N2Cc3ccc(OC(F)(F)F)cc3C2=O)nc2ccc(OC(C)(C)C#N)cn12 [Compound P26, 2-[3-ethylsulfonyl-2-[1-oxo-6-(trifluoromethoxy)isoindolin-2-yl]imidazo[1,2-a]pyridin-6-yl]oxy-2-methyl-propanenitrile]
≥ 80%: mortality at 200 ppm [1] | percent effect (mortality or growth inhibition) at 200 ppm [2] | mortality at 200 ppm [3] | percent effect (mortality or growth inhibition) at 200 ppm [4] | percent control (mortality, anti-feedant effect or growth inhibition) at 200 ppm [9] | percent effect (mortality or growth inhibition) at 3 ppm [5] | percent control (mortality, anti-feedant effect or growth inhibition) at 200 ppm [6]
